Source: PMC2193707 (The Journal of Experimental Medicine, 2002)

What was measured:
[1] = target: T1, hCD22 (cellular CD22 on Daudi cells) (Homo sapiens, UniProt P20273); assay: flow cytometry, inhibition of NeuGc2,6-PAA-bio probe staining; assay type: cell-based; conditions: sialidase-treated Daudi cells; preincubation on ice 10 min
T1 sequence (P20273 20-847): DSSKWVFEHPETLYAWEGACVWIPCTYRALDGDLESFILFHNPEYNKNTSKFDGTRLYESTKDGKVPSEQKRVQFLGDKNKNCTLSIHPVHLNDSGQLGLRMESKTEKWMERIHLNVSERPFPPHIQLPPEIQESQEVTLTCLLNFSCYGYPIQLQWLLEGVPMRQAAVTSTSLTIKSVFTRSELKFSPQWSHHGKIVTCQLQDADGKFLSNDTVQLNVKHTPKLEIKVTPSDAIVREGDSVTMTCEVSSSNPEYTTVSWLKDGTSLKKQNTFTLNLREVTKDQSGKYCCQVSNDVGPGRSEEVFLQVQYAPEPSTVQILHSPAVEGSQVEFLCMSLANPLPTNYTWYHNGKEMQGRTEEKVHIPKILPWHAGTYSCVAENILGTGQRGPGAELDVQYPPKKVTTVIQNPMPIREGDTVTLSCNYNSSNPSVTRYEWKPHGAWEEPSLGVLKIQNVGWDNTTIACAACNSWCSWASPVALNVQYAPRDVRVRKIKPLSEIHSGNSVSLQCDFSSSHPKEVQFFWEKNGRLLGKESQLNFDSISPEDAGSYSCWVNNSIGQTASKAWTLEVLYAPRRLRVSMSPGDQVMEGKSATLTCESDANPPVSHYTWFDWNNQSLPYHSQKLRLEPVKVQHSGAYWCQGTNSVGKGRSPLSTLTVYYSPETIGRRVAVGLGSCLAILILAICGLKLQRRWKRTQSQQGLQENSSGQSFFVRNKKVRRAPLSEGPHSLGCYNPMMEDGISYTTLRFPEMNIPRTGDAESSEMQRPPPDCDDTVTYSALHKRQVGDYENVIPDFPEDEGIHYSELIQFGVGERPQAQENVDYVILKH

hCD22d1–3-Fc = target: T2, hCD22d1–3-Fc (Homo sapiens, UniProt P20273); assay: hapten inhibition of […]-Fc-chimera binding to fixed target cells
T2 sequence (P20273 20-330 limits assumed): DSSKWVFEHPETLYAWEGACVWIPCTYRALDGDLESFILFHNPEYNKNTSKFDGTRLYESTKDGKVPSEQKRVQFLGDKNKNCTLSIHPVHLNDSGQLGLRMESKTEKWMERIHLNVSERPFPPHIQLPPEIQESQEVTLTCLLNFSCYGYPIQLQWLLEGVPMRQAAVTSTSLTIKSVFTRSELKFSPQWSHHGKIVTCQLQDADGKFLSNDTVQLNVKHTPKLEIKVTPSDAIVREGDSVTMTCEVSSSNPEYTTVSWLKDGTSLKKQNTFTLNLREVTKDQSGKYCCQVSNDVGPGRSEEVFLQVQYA

mCD22d1–3-Fc = target: T3, mCD22d1–3-Fc (Mus musculus, UniProt P35329); assay: as above
T3 sequence (P35329 22-347 limits assumed): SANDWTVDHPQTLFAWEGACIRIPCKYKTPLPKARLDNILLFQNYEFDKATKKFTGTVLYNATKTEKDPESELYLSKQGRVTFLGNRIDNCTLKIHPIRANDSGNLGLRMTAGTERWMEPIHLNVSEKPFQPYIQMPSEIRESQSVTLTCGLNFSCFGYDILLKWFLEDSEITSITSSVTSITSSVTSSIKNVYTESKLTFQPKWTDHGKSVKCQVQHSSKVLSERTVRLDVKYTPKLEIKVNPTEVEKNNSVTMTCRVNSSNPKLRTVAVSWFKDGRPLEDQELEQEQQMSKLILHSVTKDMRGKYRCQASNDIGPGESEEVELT

mSnd1–3-Fc = mSnd1–3-Fc (Mus musculus, UniProt Q62230); assay: as above
mSnd1–3-Fc, sequence (Q62230 20-325 limits assumed): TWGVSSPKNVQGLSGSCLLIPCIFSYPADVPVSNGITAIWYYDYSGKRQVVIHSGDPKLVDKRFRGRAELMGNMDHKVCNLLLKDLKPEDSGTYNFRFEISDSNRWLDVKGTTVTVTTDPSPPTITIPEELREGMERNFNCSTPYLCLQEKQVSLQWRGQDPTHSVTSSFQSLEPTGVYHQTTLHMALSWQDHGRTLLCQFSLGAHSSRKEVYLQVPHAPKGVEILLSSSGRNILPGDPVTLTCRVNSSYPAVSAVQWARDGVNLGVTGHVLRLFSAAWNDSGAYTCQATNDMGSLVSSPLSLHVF

[2] = target: T4, mCD22 (cellular CD22 on mouse B cells) (Mus musculus, UniProt P35329); assay: flow cytometry, inhibition of NeuGc2,6-PAA-bio probe staining; assay type: cell-based; conditions: sialidase-treated mouse B cells (B220+); preincubation on ice 10 min
T4 sequence (P35329 22-868): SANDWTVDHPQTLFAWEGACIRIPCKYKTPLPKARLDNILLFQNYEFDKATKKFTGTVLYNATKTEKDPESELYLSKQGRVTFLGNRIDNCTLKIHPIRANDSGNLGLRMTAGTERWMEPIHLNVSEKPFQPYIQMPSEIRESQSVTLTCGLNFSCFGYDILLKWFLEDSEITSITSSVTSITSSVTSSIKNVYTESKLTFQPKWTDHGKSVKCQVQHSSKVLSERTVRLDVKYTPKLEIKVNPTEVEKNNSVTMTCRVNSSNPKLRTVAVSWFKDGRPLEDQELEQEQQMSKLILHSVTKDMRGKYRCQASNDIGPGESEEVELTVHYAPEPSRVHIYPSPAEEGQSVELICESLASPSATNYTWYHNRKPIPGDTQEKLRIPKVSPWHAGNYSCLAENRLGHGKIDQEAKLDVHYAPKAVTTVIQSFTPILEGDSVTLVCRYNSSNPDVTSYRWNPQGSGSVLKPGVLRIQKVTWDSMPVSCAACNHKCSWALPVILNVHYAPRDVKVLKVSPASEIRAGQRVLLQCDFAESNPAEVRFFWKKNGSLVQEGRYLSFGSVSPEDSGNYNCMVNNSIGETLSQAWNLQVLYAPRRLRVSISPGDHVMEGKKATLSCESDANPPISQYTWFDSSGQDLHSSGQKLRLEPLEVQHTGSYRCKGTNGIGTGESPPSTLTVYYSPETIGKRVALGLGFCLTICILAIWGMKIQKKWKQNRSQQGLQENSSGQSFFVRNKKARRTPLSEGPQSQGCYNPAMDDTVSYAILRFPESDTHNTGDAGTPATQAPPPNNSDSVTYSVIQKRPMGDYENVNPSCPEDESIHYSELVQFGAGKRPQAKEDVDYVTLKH

| IC50 (hCD22d1–3-Fc) [µM] | IC50 (mCD22d1–3-Fc) [µM] | IC50 (mSnd1–3-Fc) [µM] | Structure (SMILES) | flow cytometry, inhibition of NeuGc2,6-PAA-bio probe staining [1] | flow cytometry, inhibition of NeuGc2,6-PAA-bio probe staining [2] |
| --- | --- | --- | --- | --- | --- |
| 4 | 1220 | 52 | CO[C@]1(C(=O)O)C[C@H](O)[C@@H](NC(C)=O)[C@H]([C@H](O)[C@H](O)CNC(=O)c2ccc(-c3ccccc3)cc2)O1 [BPC-Neu5Ac, Methyl-a-9-N-(biphenyl-4-carbonyl)-amino-9-deoxy-Neu5Ac] | Pretreatment with BPC-Neu5Ac was most potent in inhibiting the binding of the synthetic CD22 ligand | – |
| – | – | – | CO[C@]1(C(=O)O)C[C@H](O)[C@@H](NC(C)=O)[C@H]([C@H](O)[C@H](O)CNC(=O)Cc2ccc(-c3ccccc3)cc2)O1 [BPAc-Neu5Ac, Methyl-a-9-N-(biphenyl-4-acetyl)-amino-9-deoxy-Neu5Ac] | – | performed on mouse B cells, BPAc-Neu5Ac was the more potent inhibitor |
